Marks after values point to notes of the source that are not given here.
What was measured:
[1] = test system: FRTL5 cells; test: release of [3H]-arachidonic acid from FRTL5 cells stimulated with ATP; format: cell-based, rat; conditions: ATP 100 μM 10 minutes
Method: FRTL5, cell line of epithelial cells from rat thyroid grown in culture. Briefly, the cells were cultured in Coon's F12 medium modified according to Ham and supplemented with 5% bovine serum, 20 mM glutamine and a mixture of six hormones. (6H-thyrotropin, insulin, transferring, cortisol, somatostatin, glicil-L-istidil-L-lysine acetate) at 37° C. in a humidified atmosphere in 5% CO2, 95% air medium changed every 3-4 days. […]
(§1) The cells are initially incubated with various concentrations of the compound under examination for 60 minutes or with a predefined concentration of 100 μM for various time intervals (15-180 minutes), washed two times with HBSS (Hank's Balanced Salt Solution, in the presence of Ca2+ and Mg2+ ions) added with 10 mM Hepes and 0.2% BSA—in absence of free fatty acids, pH 7.4 and stimulated with 100 μM ATP in the described buffer for 10 minutes at 37° C. The supernatant was collected in scintillation cuvettes for determination. The results are expressed as a percentage of the total release of [3H]-arachidonic acid.
Preloaded cells are incubated with 100 μM of compound of the Example 4a for different time intervals and then stimulated with ATP (100 μM) for 10 minutes. The results are expressed as the mean±SE of two points in 3 separate experiments. The stimulation of control cells was generally 4-5 times the basal value in the corresponding intervals.
(§2) Preloaded cells were pre-incubated with various concentrations of the Example 4a for 60 minutes and then stimulated with 100 μM ATP for 10 minutes. The results are expressed as the mean±SE of two points in 3 separate experiments.

[2] = test system: Swiss 3T3 fibroblasts; test: bombesin-dependent release of [3H]-arachidonic acid in Swiss 3T3 fibroblasts; format: cell-based; conditions: then bombesin 10 minutes
Method: (§3) cPLA2-dependent mechanism, for example ATP, mastoparan, bombesin;
as §1
Preloaded cells were pre-incubated with various concentrations of the Example 4a for 60 minutes and then stimulated with bombesin for 10 minutes. The results are expressed as the mean±SE of two points in 3 separate experiments.

[3] = test system: Swiss 3T3 fibroblasts; test: release of [3H]-arachidonic acid from Swiss 3T3 fibroblasts stimulated with ATP; format: cell-based
Method: as §3, §1, §2

[4] = test system: Swiss 3T3 fibroblasts; test: mastoparan-dependent release of [3H]-arachidonic acid in Swiss 3T3 fibroblasts; format: cell-based
Method: as §3, §1
Preloaded radioactively labeled cells were pre-incubated with various concentrations of the Example 4a for 60 minutes and then stimulated with 100 μM mastoparan for 10 minutes. The results are expressed as the mean±SE of two points in 3 separate experiments.

[5] = test system: FRTL5 cells; test: release of [3H]-arachidonic acid induced by ionomicin in FRTL5 cells (cPLA2-independent); format: cell-based, rat; conditions: for Release of [^3H]-arachidonic acid: then 10 μM ionomicin 30 minutes
Method: FRTL5, cell line of epithelial cells from rat thyroid grown in culture. Briefly, the cells were cultured in Coon's F12 medium modified according to Ham and supplemented with 5% bovine serum, 20 mM glutamine and a mixture of six hormones. (6H-thyrotropin, insulin, transferring, cortisol, somatostatin, glicil-L-istidil-L-lysine acetate) at 37° C. in a humidified atmosphere in 5% CO2, 95% air medium changed every 3-4 days.
cPLA2-independent mechanism, for example Ca2+ ionophore, ionomicin.
as §1
Preloaded cells were pre-incubated with various concentrations of the Example 4a for 60 minutes and then stimulated with 10 μM ionomicin for 30 minutes. The results are expressed as the mean±SE of two points in 3 separate experiments.

[6] = test system: Balb/c mice; test: plasma extravasation in the ear pinna of the mouse induced by peptide P6-11 of substance P; format: in vivo; conditions: P 6-11
[7] = test system: cPLA2; test: release of arachidonic acid induced by the activation of cPLA2 in various cellular systems (overall statement); format: cell-based; conditions: all the cellular systems tested
Method: Evaluation of the effects of the L-α-glycero-phospho-D-mio-inositol autacoid coded example 4a on the release of arachidonic acid induced by cPLA2 in various cellular systems.
The cultures are stimulated to release arachidonic acid using various stimuli:
as §3, §1

[8] = test system: Balb/c mice; test: plasma extravasation in the ear pinna of the mouse induced by substance P; conditions: compound 5 mg/kg endovenous
[9] = solubility in water; format: physicochemical
[10] = solubility in organic solvents; format: physicochemical
[11] = compound 5 mg/kg endovenous 30 minutes before
[12] = compound 10 mg/Kg endovenous 30 minutes before

O=P([O-])(OCC(O)CO)OC1C(O)C(O)C(O)C(O)C1O.[K+] [Example 4a, L-α-glycero-phospho-D-mio-inositol potassium salt]
Release of [^3H]-arachidonic acid % inhibition ([1]; 0.005 μM compound, 60 minutes preincubation): 10 ± 2 % inhibition | Release of [^3H]-arachidonic acid % inhibition ([1]; 0.01 μM compound, 60 minutes preincubation): 35 ± 5 % inhibition | Release of [^3H]-arachidonic acid % inhibition ([1]; 0.1 μM compound, 60 minutes preincubation): 41 ± 2 % inhibition | Release of [^3H]-arachidonic acid % inhibition ([1]; 1.0 μM compound, 60 minutes preincubation): 52 ± 3 % inhibition | Release of [^3H]-arachidonic acid % inhibition ([1]; 10 μM compound, 60 minutes preincubation): 60 ± 8 % inhibition | Release of [^3H]-arachidonic acid % inhibition ([1]; 50 μM compound, 60 minutes preincubation): 70 ± 4 % inhibition | Release of [^3H]-arachidonic acid % inhibition ([1]; 100 μM compound, 15 minutes of preincubation): 30 ± 4 % inhibition | Release of [^3H]-arachidonic acid % inhibition ([1]; 100 μM compound, 30 minutes of preincubation): 42 ± 5 % inhibition | Release of [^3H]-arachidonic acid % inhibition ([1]; 100 μM compound, 60 minutes of preincubation): 70 ± 4 % inhibition | Release of [^3H]-arachidonic acid % inhibition ([1]; 100 μM compound, 60 minutes preincubation): 92 ± 2 % inhibition | Release of [^3H]-arachidonic acid % inhibition ([1]; 100 μM compound, 90 minutes of preincubation): 72 ± 5 % inhibition | Release of [^3H]-arachidonic acid % inhibition ([1]; 100 μM compound, 120 minutes of preincubation): 71 ± 6 % inhibition | Release of [^3H]-arachidonic acid % inhibition ([1]; 100 μM compound, 180 minutes of preincubation): 92 ± 9 % inhibition | Release of [^3H]-arachidonic acid % basal ([2]; 50 μM compound 60 minutes): 120 ± 3 % basal | Release of [^3H]-arachidonic acid % basal ([2]; 100 μM compound 60 minutes): 90 ± 4 % basal | Release of [^3H]-arachidonic acid % basal ([3]; 50 μM compound 60 minutes, then 100 μM ATP 10 minutes): 80 ± 9 % basal | Release of [^3H]-arachidonic acid % basal ([3]; 100 μM compound 60 minutes, then 100 μM ATP 10 minutes): 70 ± 4 % basal | Release of [^3H]-arachidonic acid % basal ([4]; 50 μM compound 60 minutes, then 100 μM mastoparan 10 minutes): 90 ± 3 % basal | Release of [^3H]-arachidonic acid % basal ([4]; 100 μM compound 60 minutes, then 100 μM mastoparan 10 minutes): 80 ± 4 % basal | Release of [^3H]-arachidonic acid ([5]; 50 μM compound 60 minutes): 720 ± 30 | Release of [^3H]-arachidonic acid ([5]; 100 μM compound 60 minutes): 450 ± 14 | effect on release of arachidonic acid induced by stimuli not related to cPLA2 (in words) ([5]; calcium ionophore): does not induce reduction of the release of arachidonic acid | Absorbance x10^−2 ([6]; compound 0.5 mg/kg endovenous (Table 8)): 54 ± 4* x10^−2 | Absorbance x10^−2 ([6]; compound 1.5 mg/Kg endovenous (Table 8)): 57 ± 7* x10^−2 | Absorbance x10^−2 ([6]; compound 5 mg/Kg endovenous (Table 8)): 34 ± 8* x10^−2 | Absorbance (Evan's Blue, 620 nm) [6, 11]: 0.081 ± 0.027 | effect on release of arachidonic acid induced by the activation of the cPLA2 (in words) [7]: reduce in a time and concentration dependent manner the release of arachidonic acid

L-α-glycero-phospho-D-mio-inositol zinc salt [Example 3]
effect on release of arachidonic acid induced by the activation of the cPLA2 (in words) [7]: more potent effect

Mastoparan [reference compound]
Release of [^3H]-arachidonic acid % basal ([4]; stimulus alone: 100 μM mastoparan 10 minutes, no test compound): 150 ± 12 % basal

O=P([O-])(OCC(O)CO)OC1C(O)C(O)C(O)C(O)C1O.[Na+] [Example 4, L-α-glycerol-phospho-D-mio-inositol sodium salt]
effect on release of arachidonic acid induced by the activation of the cPLA2 (in words) [7]: more potent effect

Nc1ncnc2c1ncn2[C@@H]1O[C@H](COP(=O)(O)OP(=O)(O)OP(=O)(O)O)[C@@H](O)[C@H]1O [ATP, reference compound]
Release of [^3H]-arachidonic acid % basal ([3]; stimulus alone: 100 μM ATP 10 minutes, no test compound): 149 ± 11 % basal

L-α-glycero-phospho-D-mio-inositol calcium salt [Example 2]
Absorbance (Evan's Blue, 620 nm) [6, 11]: 0.092 ± 0.021 | Absorbance (Evan's Blue, 620 nm) [6, 12]: 0.079 ± 0.022•

NCCCC[C@H](N)C(=O)O.O=P(O)(OCC(O)CO)OC1C(O)C(O)C(O)C(O)C1O [Example 6, L-α-glycero-phospho-D-mio-inositol lysine salt]
Absorbance (Evan's Blue, 620 nm) [8]: 0.239 ± 0.015 | Absorbance (Evan's Blue, 620 nm) [6, 11]: 0.131 ± 0.022 | Absorbance (Evan's Blue, 620 nm) [6, 12]: 0.072 ± 0.010•

C[N+](C)(C)CCO.O=P([O-])(OCC(O)CO)OC1C(O)C(O)C(O)C(O)C1O [Example 5, L-α-glycero-phospho-D-mio-inositol choline salt]
Absorbance (Evan's Blue, 620 nm) [8]: 0.222 ± 0.010

CCCC[N+](CCCC)(CCCC)CCCC.O=P([O-])(OCC(O)CO)OC1C(O)C(O)C(O)C(O)C1O [Example 8, L-α-glycero-phospho-D-mio-inositol tetrabutylammonium salt]
solubility in water [9]: >10000 µg/mL | solubility in organic solvents ([10]; in DMF): ≧10 mg/ml in DMF | solubility in organic solvents ([10]; in words): slightly soluble in organic solvents,

Reference: patent publication US7625883B1, “Glycerophosphoinositol derivatives as modulators of cytosolic A2 phospholipase” (I.R.B. Istituto di Ricerche Biotechnologiche S.R.L., priority 2000, dated 2009)
